From paper PMC6270263, “Factors Influencing the Antifolate Activity of Synthetic Tea-Derived Catechins” (Molecules, 2013)
Read-outs that look alike come from different tables or passages of the source.

Columns and labels:
[1] = test system: SK-MEL-28 melanoma cell line; assay: MTT cell proliferation assay in melanoma cells; assay type: cell-based, human; details: SK-MEL-28, after 6 days of treatment, read-out: Half-maximal inhibitory concentration (IC50)
From the text: Antifolate compounds are designed to inhibit DHFR and act specifically during DNA and RNA synthesis, making them more toxic to rapidly dividing cells. Recent evidences indicate that tea-catechins and derived compounds could inhibit DHFR and block the folate cycle in cancer cells. Although inhibition of DHFR by these compounds could be a plausible explanation for their antifolate activity, the possibility of these compounds targeting (folate)-enzymes other than DHFR could not be excluded. To determine whether these newly synthetized compounds disrupt the folate cycle in cell culture, we studied their antiproliferative activity in the melanoma cell line SK-MEL-28 (Table 3). Concentration- and time-dependent effects were analyzed using the colorimetric 4,5-(3)-dimethylthiazol-2-yl)-2,5-diphenyltetrazolium bromide (MTT) method.
The human melanoma cell line SK-MEL-28 was obtained from American Type Culture Collection (ATCC, Manassas, VA, USA) and was maintained in Eagles’s Minimum Essential Medium (EMEM) supplemented with 10% (v/v) FBS and antibiotics at 37 °C in a humidified atmosphere containing 7.5% CO2. Cell viability was evaluated using the MTT cell proliferation assay. Cells were evaluated for apoptosis using a cell death detection ELISA (Cell Death Detection ELISAPLUS, Roche Diagnostics, Barcelona, Spain). The principle of this test is the detection of mono- and oligonucleosomes in the cytoplasmic fractions of cell lysates using biotinylated anti-histone and peroxidase-coupled anti-DNA antibodies. The amount of nucleosomes is photometrically quantified at 405 nm by the peroxidase activity retained in the immunocomplexes. Apoptosis was defined as the specific enrichment of mono- and oligonucleosomes in the cytoplasm and was calculated by dividing the absorbance of treated samples with the absorbance of untreated samples after correcting for the number of cells. The induction of apoptosis in each melanoma cell line after a 7 h treatment with 2 μM staurosporin (100% apoptotic cells) was used to calculate the number of apoptotic cells. For these assays, cells were plated in a 96-well plate at a density of 1000–2000 cells/well. Compounds were added once at the beginning of the experiments.

[2] = target: T1, free recombinant human DHFR (rHDHFR) (Homo sapiens, UniProt P00374); assay: Binding of polyphenols to free rHDHFR by fluorescence quenching titration
T1 construct: made in house; host or cells: Bombyx mori chrysalides
T1 sequence (P00374 1-187): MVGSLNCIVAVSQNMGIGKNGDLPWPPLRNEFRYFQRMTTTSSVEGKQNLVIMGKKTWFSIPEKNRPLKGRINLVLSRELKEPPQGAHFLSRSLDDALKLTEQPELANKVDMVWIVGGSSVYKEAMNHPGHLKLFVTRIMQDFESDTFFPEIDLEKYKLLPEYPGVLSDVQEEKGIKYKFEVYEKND
Method: Natural and synthetic derivatives of tea catechins have shown to be good inhibitors of human DHFR [7, 11, 16, 18]. To determine the ability of natural and synthetic polyphenols to bind DHFR, we performed a structure-activity study by analyzing the binding of these polyphenols to DHFR using fluorescence quenching. Effective binding to free recombinant human DHFR (rHDHFR) was determined by measuring the decrease in enzyme fluorescence that occurs upon the formation of the enzyme-inhibitor complex. […] The dissociation constants of the synthetic compounds were on the same order as those of the natural analogues, indicating the high DHFR binding capacities of these new derivatives.
The dissociation constants for the binding of polyphenols to free recombinant human DHFR (rHDHFR) were determined by fluorescence titration in an automatic-scanning FluoroMax-3 (Jobin Ybon, Horiba, Edison, NJ, USA) spectrofluorometer with 1.0 cm light path cells and a 150 W mercury-xenon light source. The formation of a binary complex between the enzyme (2.5 × 10^−7 M) and the ligand (from 0 to 40 µM) was followed by measuring the quenching of the tryptophan fluorescence of the enzyme upon the addition of microliter volumes of a concentrated stock solution of ligand. Experiments were performed at pH 7.5 in a buffer containing 2-(N-morpholino)ethanesulfonic acid (Mes, 0.025 M), sodium acetate (0.025 M), tris(hydroxymethyl)aminomethane (Tris 0.05 M), and NaCl (0.1 M). The temperature was controlled at 25 °C using a Haake D1G circulating bath with a heater and cooler. Fluorescence emission spectra were recorded when the human DHFR fluorescence was excited at 290 nm, and titrations were performed as described elsewhere.

[3] = target: T2, human serum albumin (HSA) (Homo sapiens, UniProt P02768); assay: HSA binding by fluorescence quenching
T2 construct: purchased Sigma-Aldrich
Method: Fluorescence measurements were made on an automatic scanning Perkin-Elmer LS50B spectrofluorometer with 1.0 cm light path cells equipped with a 150 W xenon (XBO) light source. […] A plot of log (F0-F)/F against log [Q] was used to determine the values of KA and n from the intercept and the slope, respectively. Binding of TMECG, EGCG, and EC to HSA was determined as specified for the BSA binding studies.

[4] = target: T3, bovine serum albumin (BSA) (Bos taurus, UniProt P02769); assay: BSA binding by fluorescence quenching
T3 construct: purchased Sigma-Aldrich
From the text: Upon progressive additions of various concentrations of EGCG and TMCG to BSA, the emission intensity decreases, as shown in Figure 4(a). The quenching of the fluorescence intensity of BSA implies that the catechins bind at close proximity to the tryptophan and tyrosine residues and that the molecular arrangement of BSA is affected by the interactions. […] The binding constants (KA) for the BSA-EGCG and BSA-TMCG complexes are 1.54 × 10^7 M^−1 and 1.9 × 10^5 M^−1, respectively (Table 4), and their plots are shown in Figure 4(b). […] In light of these findings, it can be reasoned that the binding affinity to BSA is higher for the galloylated catechin than for the methylated one, which emphasises that the three phenolic groups can enhance hydrogen bonding between BSA and EGCG [25].
Fluorescence measurements were made on an automatic scanning Perkin-Elmer LS50B spectrofluorometer with 1.0 cm light path cells equipped with a 150 W xenon (XBO) light source. In all experiments, the fluorescence of BSA (5 × 10^−6 M) in 50 mM phosphate buffer of pH 7.5 was followed by excitation at 280 nm. The binding affinities of EGCG and TMCG with BSA in terms of binding constants were determined using the following equation [25]: log (F0−F)/F = log KA + n log [Q](1) where KA is the binding constant, n is the number of binding sites, F0 is the fluorescence intensity of free BSA and F is the consequent fluorescence upon the addition of catechins (Q). A plot of log (F0-F)/F against log [Q] was used to determine the values of KA and n from the intercept and the slope, respectively.

[5] = target: T3, bovine serum albumin (BSA); assay: Competitive site-marker (warfarin, ibuprofen) binding to BSA; details: for Kd: Binding constant (KA), BSA, 25 °C
Method: Next, the site selective binding of both EGCG and TMCG to BSA was analyzed. The capability of serum albumins to bind to aromatic and heterocyclic compounds is largely dependent on the existence of two major binding regions, namely site-I and site-II [25]. Warfarin and ibuprofen are fluorescence probes whose primary binding sites to BSA are site-I and site-II, respectively.
To identify the binding sites of EGCG and TMCG in BSA, the displacements of warfarin and ibuprofen (known to bind at site I and site II, respectively) were followed fluorometrically. Equimolar solutions of BSA and warfarin (5 × 10^−6 M each) were mixed for 1 h and titrated with EGCG and TMCG in separate experiments. Similar solutions containing equimolar ibuprofen and BSA were prepared and separately titrated with EGCG and TMCG to identify the binding sites of EGCG and TMCG with BSA. Titration was followed fluorometrically using an excitation wavelength of 280 nm.

[6] = UV-visible absorption spectra at different pH (ionization state); assay type: physicochemical; details: for Effect of pH on absorption spectra: UV-visible spectra, pH range 5.0–9.0 for TMCG and TMECG
Method: It has been shown that the protonation state of methotrexate, trimethoprim, and pyrimethamine modulates the binding of these antifolates to DHFRs from several sources. […] The absorbance maximum at 278 nm undergoes a bathochromic displacement to 328 nm, which is greatest at alkaline pH (pH > 9.0).
To determine if the spectral changes in the SYCG and SYECG solutions with pH were due to an irreversible oxidation reaction or to a reversible protonation step, a pH titration experiment was carried out. An alkaline solution of SYCG and SYECG (pH 8.5) was acidified to pH 2.5 by the addition of dilute HCl. A change in the spectra was observed, indicating a reversible protonation reaction. The spectral changes with pH observed in SYCG and SYECG can be attributed to the hydroxyl group para on the ester-bonded gallate moiety. At acidic pH, these derivatives are mainly present as protonated species, whereas at basic pH or values near neutrality, these derivatives evolve toward the deprotonated species, which are stabilized by resonance (Scheme 3). […] As described, an important factor that decreases catechin bioavailability might be their inability to easily cross cellular membranes by passive diffusion. The presence of several hydroxyl groups in these molecules gives them a high hydrophilic character, which increases the difficulty of passing across lipid membranes.
Ultraviolet-visible absorption spectra of catechins at different pHs were recorded on a UV-Vis Perkin-Elmer Lambda-2 spectrophotometer with a spectral bandwidth of 1 nm at a scan speed of 60 nm s^−1. The experiments were performed in the same buffer as described for DHFR binding studies, and the ionic strength remained constant at an optimum value of 0.15 over the pH range that was used. The pH of the reaction was measured before and after the experiment.

[7] = Table 2, restates Table 1, read-out: KD, order of binding strengths to rHDHFR depending on D-ring substitution
[8] = pH 7.5, 25 °C, fluorescence titration, read-out: Dissociation constant KD of free rHDHFR
[9] = determined as for BSA binding studies, read-out: Binding affinity to HSA (KA) (converted)

T3 sequence (P02769 25-607): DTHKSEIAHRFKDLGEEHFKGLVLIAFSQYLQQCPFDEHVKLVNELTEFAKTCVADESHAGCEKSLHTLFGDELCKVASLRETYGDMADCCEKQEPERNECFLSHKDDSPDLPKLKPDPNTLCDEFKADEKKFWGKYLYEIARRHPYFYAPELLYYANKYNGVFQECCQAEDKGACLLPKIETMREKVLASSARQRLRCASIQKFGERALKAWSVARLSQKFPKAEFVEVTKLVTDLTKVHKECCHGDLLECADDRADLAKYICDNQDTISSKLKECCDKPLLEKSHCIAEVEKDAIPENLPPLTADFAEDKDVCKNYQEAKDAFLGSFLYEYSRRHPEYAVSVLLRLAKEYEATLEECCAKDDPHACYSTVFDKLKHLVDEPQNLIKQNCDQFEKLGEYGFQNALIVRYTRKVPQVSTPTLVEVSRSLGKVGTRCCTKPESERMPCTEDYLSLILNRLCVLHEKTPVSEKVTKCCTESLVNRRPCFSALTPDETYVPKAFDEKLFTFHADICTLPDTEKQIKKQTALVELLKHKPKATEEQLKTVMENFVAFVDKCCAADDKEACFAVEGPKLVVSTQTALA
T2 sequence (P02768 25-609): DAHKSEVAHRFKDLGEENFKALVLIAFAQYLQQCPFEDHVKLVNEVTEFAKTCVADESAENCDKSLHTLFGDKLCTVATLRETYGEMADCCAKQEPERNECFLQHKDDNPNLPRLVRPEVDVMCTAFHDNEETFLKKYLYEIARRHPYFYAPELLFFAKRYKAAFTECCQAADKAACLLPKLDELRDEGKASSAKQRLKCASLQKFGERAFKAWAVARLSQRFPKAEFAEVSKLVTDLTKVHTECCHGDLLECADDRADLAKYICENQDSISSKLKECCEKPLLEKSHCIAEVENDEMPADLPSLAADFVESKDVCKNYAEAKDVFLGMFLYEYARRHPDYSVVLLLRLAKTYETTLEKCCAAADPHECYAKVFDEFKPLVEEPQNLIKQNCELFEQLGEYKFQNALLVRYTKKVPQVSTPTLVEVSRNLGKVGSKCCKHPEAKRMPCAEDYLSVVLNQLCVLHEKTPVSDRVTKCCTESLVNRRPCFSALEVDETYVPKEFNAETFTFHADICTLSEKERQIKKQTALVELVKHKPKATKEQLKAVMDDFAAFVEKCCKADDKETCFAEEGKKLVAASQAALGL

Structure (SMILES) | melting point [°C] | IC50 ([1]; Homo sapiens, SK-MEL-28, 144 h) [nM] | Kd [2, 7] [nM] | Kd [2, 8] [nM] | Effect of pH on absorption spectra [6] | other results
COc1cc(C(=O)O[C@H]2Cc3c(OC(C)=O)cc(OC(C)=O)cc3O[C@@H]2c2ccc(OC(C)=O)c(OC(C)=O)c2)cc(OC)c1OC(C)=O [ASYCG, 5,7,3’,4’,4’’-penta-O-acetyl-3-O-(3,5-dimethoxybenzoyl)-catechin] | 88 to 93 | 37400 ± 4000 | – | – | – | –
O=C(O[C@H]1Cc2c(O)cc(O)cc2O[C@@H]1c1ccc(O)c(O)c1)c1cc(O)c(O)c(O)c1 [CG, catechin-3-gallate, reference compound] | – | 82200 ± 8000 | 560 | 560 ± 70 | – | –
Oc1cc(O)c2c(c1)O[C@H](c1ccc(O)c(O)c1)[C@H](O)C2 [EC, epicatechin] | – | – | – | – | – | Kd [3, 9]: 312000 nM
O=C(O[C@@H]1Cc2c(O)cc(O)cc2O[C@@H]1c1ccc(O)c(O)c1)c1cc(O)c(O)c(O)c1 [ECG, epicatechin-3-gallate, reference compound] | – | > 100000 | 810 | 810 ± 90 | – | –
O=C(O[C@@H]1Cc2c(O)cc(O)cc2O[C@@H]1c1cc(O)c(O)c(O)c1)c1cc(O)c(O)c(O)c1 [EGCG, epigallocatechin-3-gallate, reference compound] | – | – | – | – | – | Kd [3]: 3850 nM; Kd [4]: 64.9 nM; Number of binding sites n ([4]; catechin-BSA complex, double logarithmic plot): approximately 1; Kd ([5]; site marker: Blank): 64.9 nM; Kd ([5]; site marker: Ibuprofen): 82 nM; Kd ([5]; site marker: Warfarin): 7690 nM; Site selective binding to BSA ([5]; competition with warfarin (site-I) and ibuprofen (site-II)): higher specificity for site-I
COc1cc(C(=O)O[C@H]2Cc3c(O)cc(O)cc3O[C@@H]2c2ccc(O)c(O)c2)cc(OC)c1OC(C)=O [MASYCG, 3-O-(4-acetoxy-3,5-dimethoxybenzoyl)-catechin] | 118 to 122 | 60900 ± 6000 | – | – | – | –
COc1cc(C(=O)OC2Cc3c(O)cc(O)cc3OC2c2ccc(O)c(O)c2)cc(OC)c1O (centres unmarked) [SYCG, 3-O-(4-hydroxy-3,5-dimethoxybenzoyl)-catechin] | 110 to 114 | 126000 ± 10000 | 720 | 720 ± 100 | strongly affected by the pH | Ionization state at physiologic pH [6]: partially in their ionic form
COc1cc(C(=O)OC2Cc3c(O)cc(O)cc3OC2c2ccc(O)c(O)c2)cc(OC)c1O (centres unmarked) [SYECG, 3-O-(4-hydroxy-3,5-dimethoxybenzoyl)-epicatechin] | 120 to 123 | – | 770 | 770 ± 70 | strongly affected by the pH | Ionization state at physiologic pH [6]: partially in their ionic form; IC50 [1]: 199000 ± 12000 nM
COc1cc(C(=O)O[C@@H]2Cc3c(O)cc(O)cc3O[C@@H]2c2ccc(O)c(O)c2)cc(OC)c1OC [TMECG] | – | 2500 ± 600 | 2100 | 2100 ± 200 | no significant changes | Kd [3, 9]: 23800 nM
